Assay results as given in patent US6403626B1, “Benzimidazole derivatives” (Synaptic Pharmaceutical Corporation, priority 1994, dated 2002).
Counter-ions that a name gives are not always drawn.

| SMILES | melting point |
| --- | --- |
| CCCn1cnc2ccc(NC3=NCCN3)cc21 (as salt: fumarate) [Example 15, 3-Propyl-5-(2-imidazolin-2-ylamino)Benzimidazole] | 198 to 199 °C |
| Cc1cc(NC2=NCCN2)cc2[nH]cnc12 (as salt: fumarate) [Example 52, 7-Methyl-5-(2-imidazolin-2-ylamino)Benzimidazole] | 229 to 231 °C |
| Cn1cnc2cc(NC3=NCCN3)ccc21 (as salt: fumarate) [Example 9, 1-Methyl-5-(2-imidazolin-2-ylamino)Benzimidazole] | 210 to 211 °C |
| Brc1c(NC2=NCCN2)ccc2ncn(CC3CCCCC3)c12 (as salt: fumarate) [Example 31, 3-Cyclohexylmethyl-4-bromo-5-(2-imidazolin-2-ylamino)Benzimidazole] | 153 to 155 °C |
| c1ccc(-c2cc(NC3=NCCN3)cc3[nH]cnc23)cc1 (as salt: fumarate) [Example 57, 7-Phenyl-5-(2-imidazolin-2-ylamino)Benzimidazole] | 149 to 151 °C |
| CC(C)n1cnc2c(I)c(NC3=NCCN3)ccc21 (as salt: fumarate) [Example 19, 1-lsopropyl-4-Iodo-5-(2-imidazolin-2-ylamino)Benzimidazole] | 208 to 209 °C |
| CCCn1cnc2cc(NC3=NCCN3)ccc21 (as salt: fumarate) [Example 13, 1-Propyl-5-(2-imidazolin-2-ylamino)Benzimidazole] | 206 to 207 °C |
| CC(C)n1cnc2c(Br)c(NC3=NCCN3)ccc21 (as salt: fumarate) [Example 18, 1-Isopropyl-4-bromo-5-(2-imidazolin-2-ylamino)Benzimidazole] | 187 to 188 °C |
| CCc1nc2ccc(NC3=NCCN3)c(Br)c2[nH]1 (as salt: fumarate) [Example 43, 2-Ethyl-4-bromo-5-(2-imidazolin-2-ylamino)Benzimidazole] | 186 to 187 °C |
| Cn1cnc2ccc(NC3=NCCN3)cc21 (as salt: fumarate) [Example 11, 3-Methyl-5-(2-imidazolin-2-ylamino)Benzimidazole] | 202 to 204 °C |
| CCc1cc(NC2=NCCN2)cc2[nH]cnc12 (as salt: fumarate) [Example 55, 7-Ethyl-5-(2-imidazolin-2-ylamino)Benzimidazole] | 203 to 205 °C |
| CCc1c(NC2=NCCN2)ccc2nc[nH]c12 (as salt: fumarate) [Example 6, 4-Ethyl-5-(2-imidazolin-2-ylamino)Benzimidazole] | 238 to 239 °C |
| CC(C)Cn1cnc2ccc(NC3=NCCN3)c(Br)c21 (as salt: fumarate) [Example 24, 3-Isobutyl-4-bromo-5-(2-imidazolin-2-ylamino)Benzimidazole] | 187 to 188 °C |
| c1cc2c(cc1NC1=NCCN1)ncn2CC1CCCCC1 (as salt: fumarate) [Example 29, 1-Cyclohexylmethyl-5-(2-imidazolin-2-ylamino)Benzimidazole] | 222 to 223 °C |
| CC(C)Cn1cnc2cc(NC3=NCCN3)ccc21 (as salt: fumarate) [Example 22, 1-Isobutyl-5-(2-imidazolin-2-ylamino)Benzimidazole] | 185 to 186 °C |
| OCCn1cnc2c(Br)c(NC3=NCCN3)ccc21 (as salt: fumarate) [Example 38, 1-(2-Hydroxyethyl)-4-bromo-5-(2-imidazolin-2-ylamino)Benzimidazole] | 141 to 143 °C |
| CC(C)n1cnc2ccc(NC3=NCCN3)c(Br)c21 (as salt: fumarate) [Example 21, 3-Isopropyl-4-bromo-5-(2-imidazolin-2-ylamino)Benzimidazole] | 210 to 212 °C |
| c1cc2ncn(C3CCCC3)c2cc1NC1=NCCN1 (as salt: fumarate) [Example 27, 3-Cyclopentyl-5-(2-imidazolin-2-ylamino)Benzimidazole] | 158 to 159 °C |
